Experiments:
[1] = test system: Enterobacter cloacae 245; assay: IO staining of colonies of beta-D-galactosidase positive/negative bacteria (Table IVb); assay type: cell-based; conditions: Enterobacter cloacae strain 245, b-gal +; 24 h on Nutrient Agar, 150 mg/l indicator, 100 mg/l IPTG; on C: Color of colonies: key: −: absent; +/−: weak; +: strong; ++: very strong; on G: Growth of colonies: key: −: absent; +/−: weak; +: strong; ++: very strong
[2] = test system: Shigella boydii 135; assay: as above; assay type: cell-based; conditions: Shigella boydii strain 135, b-gal −; 24 h on Nutrient Agar, 150 mg/l indicator, 100 mg/l IPTG; further: key: −: absent; +/−: weak; +: strong; ++: very strong
[3] = test system: Escherichia coli; assay: IN and IO staining of bacterial colonies under anaerobic conditions; assay type: cell-based; conditions: for D: Diffusion around colonies / G: Growth of colonies / I: Intensity of color / L: Localization on colonies / S: Size of colonies: Nutrient Agar plates, anaerobically incubated with E. coli
Description: Nutrient Agar plates containing 150 mg/l of various substrates and 100 mg/l IPTG were inoculated with Escherichia coli. Plates were put in an anaerobic jar (Anaerojar, Oxoid), an AnaeroGen sachet (Oxoid) was added, the jar was closed and incubated for 24 hours at 37° C.
IN staining cannot be used under anaerobic conditions.

[4] = test system: enteric bacterial cells; assay: MDAB staining of bacterial colonies with indicators I4a and I5a on Tryptic Soy Agar, aerobic and anaerobic; assay type: cell-based; conditions: Salmonella manhattan (b-gal −); aR MDAB, equivalents 1:1; TSAYE with 40 mg/100 ml of indicator
Description: Tryptic Soy Agar (TSA) with yeast extract (0.6%) was used as the base plating medium. The media were autoclaved at 121° C. for 15 minutes and placed in a 50° C. water bath to cool. Indicators were added to the basal medium at a final concentration of 40 mg/100 ml (from 80 mg/ml stock solutions in DMF). Over night cultures of enteric bacterial cells in Brain Heart Infusion Broth were streaked onto the plates and incubated at 35° C. for 24 hours under aerobic and anaerobic conditions. After incubation, the colonial morphologies on the plates were recorded (Table III).
Weak staining was observed occasionally due to residual oxygen (micro-anaerobic conditions). Under aerobic conditions indigo (IN-stains) generally dominated the effects of MDAB staining. For example indicator system I4a/MDAB stained colonies violet under anaerobic but indigo blue under aerobic conditions.

[5] = test system: beta-D-galactosidase positive/negative bacteria; assay: IO staining of colonies of beta-D-galactosidase positive/negative bacteria (Table IVb), hue named in column head; assay type: cell-based; conditions: hue of fluorescence of stained colonies; 24 h on Nutrient Agar, 150 mg/l indicator, 100 mg/l IPTG
[6] = biological target: E. coli beta-galactosidase (Escherichia coli, UniProt P00722)
E. coli beta-galactosidase, sequence (P00722 2-1024): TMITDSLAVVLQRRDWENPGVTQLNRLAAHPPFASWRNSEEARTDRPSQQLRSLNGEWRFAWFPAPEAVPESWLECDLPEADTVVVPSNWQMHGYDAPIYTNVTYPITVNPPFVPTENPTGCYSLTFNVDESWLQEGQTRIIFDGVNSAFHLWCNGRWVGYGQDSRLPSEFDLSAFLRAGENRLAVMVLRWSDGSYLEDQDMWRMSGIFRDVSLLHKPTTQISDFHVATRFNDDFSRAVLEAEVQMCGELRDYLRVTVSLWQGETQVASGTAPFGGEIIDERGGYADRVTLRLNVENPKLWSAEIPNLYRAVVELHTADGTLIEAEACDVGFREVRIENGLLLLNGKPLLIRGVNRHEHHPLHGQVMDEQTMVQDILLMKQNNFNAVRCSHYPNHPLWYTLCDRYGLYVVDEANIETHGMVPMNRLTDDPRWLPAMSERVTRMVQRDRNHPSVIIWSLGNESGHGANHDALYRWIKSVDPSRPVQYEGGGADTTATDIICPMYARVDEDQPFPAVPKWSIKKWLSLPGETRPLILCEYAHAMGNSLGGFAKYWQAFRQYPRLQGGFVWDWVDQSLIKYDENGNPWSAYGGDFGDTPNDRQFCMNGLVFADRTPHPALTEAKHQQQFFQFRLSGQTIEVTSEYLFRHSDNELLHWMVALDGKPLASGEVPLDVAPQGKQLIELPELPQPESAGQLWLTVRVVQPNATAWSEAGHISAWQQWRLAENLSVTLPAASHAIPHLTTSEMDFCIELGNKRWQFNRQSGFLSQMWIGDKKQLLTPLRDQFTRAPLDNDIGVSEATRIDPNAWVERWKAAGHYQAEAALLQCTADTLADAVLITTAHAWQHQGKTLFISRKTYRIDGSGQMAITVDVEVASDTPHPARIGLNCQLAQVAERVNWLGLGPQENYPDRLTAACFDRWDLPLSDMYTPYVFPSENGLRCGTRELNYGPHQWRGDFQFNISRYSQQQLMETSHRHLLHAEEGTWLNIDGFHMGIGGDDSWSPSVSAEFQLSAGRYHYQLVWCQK
Description: Enzymatic reactions were performed in 100 mM Na2PO4 buffer, pH 7.3 containing 1 mM MgCl2 and 670 mg/l enzyme substrate. E. coli beta-galactosidase or K. lactis lactase were added to a final concentration of 1000 U/I or 1500 U/I, respectively. 30 ml reaction volumes were incubated for 5-18 hours at 37° C. with gentle shaking. The reaction product was collected by centrifugation (4400 g, 15 min), pellets were washed with 10 ml H2O and centrifuged again (4400 g, 15 min).

[7] = test system: Klebsiella pneumoniae; assay: IO staining of bacterial colonies on Blood Agar plates; assay type: cell-based; conditions: 24 h on Blood Agar, 150 mg/l I21a and 100 mg/l IPTG; on Growth: key: −: absent; +/−: weak; +: strong; ++: very strong
Description: Standard commercially available Blood Agar plates were impregnated with 150 mg/l 1-(2-benzoylphenyl)-6-chloro-1H-indol-3-yl-beta-D-galactopyranoside (I21a) and 100 mg/l IPTG. The plate was inoculated with Klebsiella pneumoniae.
IO stain contrasts very well with the agar plate. Further, despite the quenching effect of blood IO fluorescence is fully maintained and readily detectable.

[8] = test system: beta-galactosidase positive Eschericha coli (NM1); assay: IO staining of bacterial colonies on Nutrient Agar (color, fluorescence, localization, growth); on C: Color of colonies (strength): key: −: absent; +/−: weak; +: strong; ++: very strong; on F: Fluorescence of colonies (strength): key: −: absent; +/−: weak; +: strong; ++: very strong; on G: Growth of colonies: key: −: absent; +/−: weak; +: strong; ++: very strong; on L: Localization of stain on colonies: key: −: absent; +/−: weak; +: strong; ++: very strong; assay type: cell-based, E. coli; conditions: 150 mg/l substrate and 100 mg/l IPTG
Outline: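 Indicators were added at 150 mg/l final, optionally with 100 mg/l IPTG, to nutrient agar at pH 7.4. Plates were inoculated with β-gal-positive E. coli NM1 or β-gal-negative S. enteritidis and incubated at 37 °C. Colony color was inspected at 16–48 h under white light, and fluorescence under 366 nm UV and by plate-reader scans of 48 h cells.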

[9] = test system: beta-galactosidase negative Salmonella enteritidis (RKI 05/07992); assay type: cell-based; conditions: S. enteritidis (b-gal negative), 24 h, 150 mg/l substrate and 100 mg/l IPTG; further: key: −: absent; +/−: weak; +: strong; ++: very strong
Description: Nutrient Agar (5 g/l peptone, 5 g/l NaCl, 2 g/l yeast extract, 1 g/l beef extract, 13 g/l agar, pH 7.4) was autoclaved and allowed to cool to 50° C. Then indicators were added to final concentrations of 150 mg/l (from a 20 mg/ml stock solution in DMF).
Optionally IPTG was added to 100 mg/l (from a 100 mg/ml stock solution in H2O) and plates were poured. Agar plates were inoculated with cultures of beta-galactosidase positive Eschericha coli (NM1) or beta-galactosidase negative Salmonella enteritidis (RKI 05/07992) (pre-grown on nutrient broth for 8-18 hours) and incubated at 37° C. Plates were inspected at 16, 20, 24 and 48 hours and pictures were recorded at 18, 24, and 48 hours with a Digistore 2 Image documentation system (CAMAG) under white light.
A considerable number of indicators molecules (Table IVa, IVb) and a selection of labile groups (Table IVc) were tested with various microbial species producing different biomarker enzymes (external stimuli, eS). The color of stains ranges from yellow to red.
Plating media from Example 10 were examined under 366 nm UV irradiation at 16, 20, 24 and 48 hours for fluorescence by means of Digistore 2 Image documentation system (CAMAG). Loops of bacterial cells, grown for 48 hours on Nutrient Agar plates containing 150 mg/l beta-D-galactosidase indicator and 100 mg/l IPTG, were directly streaked into wells of black clear bottom microtiter plates. Fluorescence scans were recorded on a Spectramax M5 (Molecular Devices).

Compound | C: Color of colonies [1] | F: Fluorescence of colonies [1] | G: Growth of colonies [1] | C: Color of colonies [2] | F: Fluorescence of colonies [2] | G: Growth of colonies [2] | D: Diffusion around colonies [3] | G: Growth of colonies [3] | I: Intensity of color [3] | L: Localization on colonies [3] | S: Size of colonies [3] | F: Fluorescence of colonies (hue) [5] | also measured
5-Bromo-4-chloro-1H-indol-3-yl-beta-D-galactopyranoside [Indicator I4a, reference compound] | ++ | − | + | − | − | + | ++ | +/− | +/− | − | pinpoint | − | IN staining under anaerobic conditions ([3]; E. coli, anaerobic): failure; colonial morphology, aerobic conditions [4]: Cream colored colonies; colonial morphology, microaerobic (anaerobic) conditions [4]: Cream colored colonies; Signal upon incubation with beta-D-galactosidase in the absence of oxygen ([6]; blend with MDAB, absence of oxygen): pink dye
O=C(c1ccccc1)c1ccccc1-n1cc(O[C@@H]2O[C@H](CO)[C@H](O)[C@H](O)[C@H]2O)c2ccc(Cl)cc21 [Indicator I21a, 1-(2-Benzoylphenyl)-6-chloro-1H-indol-3-yl-beta-D-galactopyranoside] | + | + | + | − | − | + | +/− | + | + | + | 0.7 mm | y-g | Color of colonies UV (366 nm) [7]: Yellow-orange on a dark background; Color of colonies white/visible [7]: Yellow; Growth [7]: +; Product of incubation with beta-D-galactosidase ([6]; 24 h): bright yellow precipitate
COc1ccc(C(=O)c2ccccc2-n2cc(O[C@@H]3O[C@H](CO)[C@H](O)[C@H](O)[C@H]3O)c3c(Cl)c(Br)ccc32)c(OC)c1 [Indicator I28a, 5-Bromo-4-chloro-1-[2-(2,4-dimethoxybenzoyl)phenyl]-1H-indol-3-yl-beta-D-galactopyranoside] | + | +/− | + | − | − | + |  |  |  |  |  |  | F: Fluorescence of colonies (colour) ([8]; 24 h, 366 nm UV): (red); C: Color of colonies (colour of stain) ([8]; 24 h on Nutrient Agar): orange; G: Growth of colonies ([8]; E. coli, 24 h): +; L: Localization of stain on colonies ([8]; E. coli, 24 h): +; F: Fluorescence of colonies (strength) ([8]; E. coli, 24 h, 366 nm UV): +/−; C: Color of colonies (strength) ([8]; E. coli, 24 h on Nutrient Agar): +; C: Color of colonies (strength) [9]: −; F: Fluorescence of colonies (strength) ([9]; 366 nm UV): −

Source: patent publication US8940909B2, “Indicator platform” (Biosynth AG, priority 2009, dated 2015)
